Results reported in the NIST ThermoML archive (doi:10.1016/j.jct.2016.03.026).
± gives the expanded uncertainty stated by the source.

Test: xn = mol fraction of the nth substance listed
Settings: 304.21 K, Fluid (supercritical or subcritical phases), Vibrating tube method, x1 = 0.97

O=C=O [carbon dioxide] + CO
Settings | mass density [kg/m3]
16700 kPa | 863.76 ± 0.82
16725 kPa | 864.02 ± 0.82
16750 kPa | 864.2 ± 0.82
16775 kPa | 864.47 ± 0.82
16800 kPa | 864.63 ± 0.82
16825 kPa | 864.86 ± 0.82
16850 kPa | 865.05 ± 0.82
16875 kPa | 865.26 ± 0.82
16900 kPa | 865.51 ± 0.82
16925 kPa | 865.7 ± 0.82
16950 kPa | 865.9 ± 0.82
16975 kPa | 866.12 ± 0.82
17000 kPa | 866.34 ± 0.82
17025 kPa | 866.56 ± 0.82
17050 kPa | 866.78 ± 0.82
17075 kPa | 866.99 ± 0.82
17100 kPa | 867.2 ± 0.82
17125 kPa | 867.4 ± 0.82
17150 kPa | 867.63 ± 0.82
17175 kPa | 867.77 ± 0.82
17200 kPa | 867.99 ± 0.82
17225 kPa | 868.2 ± 0.82
17250 kPa | 868.43 ± 0.82
17275 kPa | 868.66 ± 0.82
17300 kPa | 868.87 ± 0.82
17325 kPa | 869.01 ± 0.82
17350 kPa | 869.28 ± 0.82
17375 kPa | 869.42 ± 0.82
17400 kPa | 869.69 ± 0.82
17425 kPa | 869.89 ± 0.82
17450 kPa | 870.09 ± 0.82
17475 kPa | 870.29 ± 0.82
17500 kPa | 870.48 ± 0.82
17525 kPa | 870.66 ± 0.82
17550 kPa | 870.86 ± 0.81
17575 kPa | 871.06 ± 0.81
17600 kPa | 871.23 ± 0.81
17625 kPa | 871.44 ± 0.81
17650 kPa | 871.68 ± 0.81
17675 kPa | 871.84 ± 0.81
17700 kPa | 872.08 ± 0.81
17725 kPa | 872.29 ± 0.81
17750 kPa | 872.45 ± 0.81
17775 kPa | 872.68 ± 0.81
17800 kPa | 872.83 ± 0.81
17825 kPa | 873.02 ± 0.81
17850 kPa | 873.25 ± 0.81
17875 kPa | 873.48 ± 0.81
17900 kPa | 873.63 ± 0.81
17925 kPa | 873.87 ± 0.81
17950 kPa | 874.01 ± 0.81
17975 kPa | 874.23 ± 0.81
18000 kPa | 874.46 ± 0.81
18025 kPa | 874.62 ± 0.81
18050 kPa | 874.83 ± 0.81
18075 kPa | 875.05 ± 0.81
18100 kPa | 875.2 ± 0.81
18125 kPa | 875.42 ± 0.81
18150 kPa | 875.58 ± 0.81
18175 kPa | 875.78 ± 0.81
18200 kPa | 876 ± 0.81
18225 kPa | 876.22 ± 0.81
18250 kPa | 876.35 ± 0.81
18275 kPa | 876.56 ± 0.81
18300 kPa | 876.78 ± 0.81
18325 kPa | 876.99 ± 0.81
18350 kPa | 877.14 ± 0.81
18375 kPa | 877.36 ± 0.81
18400 kPa | 877.5 ± 0.81
18425 kPa | 877.73 ± 0.81
18450 kPa | 877.88 ± 0.81
18475 kPa | 878.11 ± 0.81
18500 kPa | 878.3 ± 0.81
18525 kPa | 878.46 ± 0.81
18550 kPa | 878.68 ± 0.81
18575 kPa | 878.87 ± 0.81
18600 kPa | 879.03 ± 0.81
18625 kPa | 879.24 ± 0.81
18650 kPa | 879.38 ± 0.81
18675 kPa | 879.61 ± 0.81
18700 kPa | 879.76 ± 0.81
18725 kPa | 879.99 ± 0.81
18750 kPa | 880.19 ± 0.81
18775 kPa | 880.38 ± 0.81
18800 kPa | 880.58 ± 0.81
18825 kPa | 880.78 ± 0.81
18850 kPa | 880.89 ± 0.81
18875 kPa | 881.09 ± 0.81
18900 kPa | 881.28 ± 0.81
18925 kPa | 881.49 ± 0.81
18950 kPa | 881.68 ± 0.81
18975 kPa | 881.88 ± 0.81
19000 kPa | 882.06 ± 0.81
19025 kPa | 882.19 ± 0.81
19050 kPa | 882.43 ± 0.81
19075 kPa | 882.62 ± 0.81
19100 kPa | 882.73 ± 0.81
19125 kPa | 882.92 ± 0.81
19150 kPa | 883.11 ± 0.81
19175 kPa | 883.3 ± 0.81
19200 kPa | 883.48 ± 0.81
19225 kPa | 883.65 ± 0.81
19250 kPa | 883.86 ± 0.81
19275 kPa | 884.07 ± 0.81
19300 kPa | 884.25 ± 0.81
19325 kPa | 884.43 ± 0.81
19350 kPa | 884.6 ± 0.81
19375 kPa | 884.78 ± 0.81
19400 kPa | 884.95 ± 0.81
19425 kPa | 885.12 ± 0.81
19450 kPa | 885.28 ± 0.81
19475 kPa | 885.46 ± 0.81
19500 kPa | 885.62 ± 0.81
19525 kPa | 885.78 ± 0.81
19550 kPa | 886.04 ± 0.81
19575 kPa | 886.21 ± 0.81
19600 kPa | 886.37 ± 0.81
19625 kPa | 886.54 ± 0.81
19650 kPa | 886.76 ± 0.81
19675 kPa | 886.92 ± 0.81
19700 kPa | 887.09 ± 0.81
19725 kPa | 887.24 ± 0.81
